The results in this text go back to patent US20230116972A1, “CD38 MODULATORS AND METHODS OF USE THEREOF” (Cytokinetics, Inc., priority 2021, published 2023).

Experiment [1] has as its target T1, human CD38 (Homo sapiens, UniProt P28907).
T1 sequence (P28907 1-300): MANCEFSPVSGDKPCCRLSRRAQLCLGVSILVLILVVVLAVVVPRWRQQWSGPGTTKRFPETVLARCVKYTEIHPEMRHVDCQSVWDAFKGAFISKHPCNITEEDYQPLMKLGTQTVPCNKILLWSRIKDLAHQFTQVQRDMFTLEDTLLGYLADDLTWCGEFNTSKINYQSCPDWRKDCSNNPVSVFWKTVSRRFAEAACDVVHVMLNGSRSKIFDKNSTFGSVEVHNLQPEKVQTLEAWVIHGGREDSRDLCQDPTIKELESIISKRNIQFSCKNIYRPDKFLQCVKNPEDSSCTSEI
Description: human recombinant CD38 enzyme assay (hydrolysis of NAD+). In kind it is biochemical. Particulars: human recombinant CD38, 0.4 nM enzyme, 62.5 μM NAD+; read-out: hCD38 BioChem IC50. Here is the method:
(§1) Compounds described herein were assayed for their ability to inhibit the hydrolysis of NAD+ by the protein CD38. The human and mouse recombinant enzyme assays measure the inhibition of the enzyme activity by compounds using recombinant enzymes and substrates in a buffered cell-free system. The assay conditions closely mimic cellular environments. Dose responses were measured using an assay to detect the hydrolysis of NAD+. All experiments were performed in the 384-well format. […] Enzyme reactions were initiated with the addition of 10 μL of a solution containing NAD+ substrate. Subsequent detection of remaining NAD+ was determined by first converting NAD+ to NADH using alcohol dehydrogenase, then using the resulting NADH to reduce resazurine to the fluorescent product resorufin. […] Following an incubation of 60 min at ambient temperature, 10 μL of 120 mM ethanol+20 U/ml alcohol dehydrogenase+30 mM semicarbazide+0.03 mM CD38 inhibitor in 50 mM HEPES, pH 7.5, 0.2 mg/ml BSA, was added and incubated at ambient temperature for 15 min. Then 10 μl 0.32 mM NaOH was added to stop the ADH reaction (plates incubated at ambient temperature for 15 min), followed by 30 μL of 0.05 mM resazurine+1000 mU/ml Diaphorase in 200 mM Tris-HCl, pH 7.7 for 15 min at ambient temperature. The plates were read for fluorescence (Excitation/Emission=540 nm/590 nm) using an EnVision plate reader. […] Note that, in Table 4, the “Compound No” corresponds to the compound numbers in Table 1.

The target in experiment [2] is T2, mouse CD38 (Mus musculus, UniProt P56528).
T2 sequence (P56528 1-304): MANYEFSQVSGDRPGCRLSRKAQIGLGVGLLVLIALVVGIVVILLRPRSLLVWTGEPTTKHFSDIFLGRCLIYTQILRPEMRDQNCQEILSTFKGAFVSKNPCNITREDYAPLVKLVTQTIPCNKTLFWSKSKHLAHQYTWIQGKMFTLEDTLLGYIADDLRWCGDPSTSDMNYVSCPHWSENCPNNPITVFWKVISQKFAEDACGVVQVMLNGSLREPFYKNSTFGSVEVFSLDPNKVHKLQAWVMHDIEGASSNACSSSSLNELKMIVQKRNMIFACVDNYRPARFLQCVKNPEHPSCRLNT
Description: mouse recombinant CD38 enzyme assay (hydrolysis of NAD+). In kind it is biochemical. Particulars: read-out: mCD38 BioChem IC50. As to the method: as §1

What is called IC50 is the point on the concentration scale where inhibition reaches its midpoint. Turning to `CO[C@H]1C[C@H](NC(=O)c2nccc(-n3ccnc3)n2)C1` [Compound 313, 4-(1H-imidazol-1-yl)-N-((1r,3r)-3-methoxycyclobutyl)pyrimidine-2-carboxamide], the IC50 in experiment [1] was determined as 0.761 µM; in experiment [2] it was 0.198 µM.
The corresponding values for `Cn1cncc1-c1ccnc(C(=O)NC2CCC(C)(C)OC2)n1` (stereo not drawn) [Compound 278, N-(6,6-dimethyltetrahydro-2H-pyran-3-yl)-4-(1-methyl-1H-imidazol-5-yl)pyrimidine-2-carboxamide] are 0.49 µM and 0.0679 µM.
The corresponding values for `Cn1cncc1-c1ncc(Cl)c(C(=O)N[C@H]2CC[C@H](OC(F)F)CC2)n1` [Compound 323, 5-chloro-N-((1r,4r)-4-(difluoromethoxy)cyclohexyl)-2-(1-methyl-1H-imidazol-5-yl)pyrimidine-4-carboxamide] are 0.0221 µM and 0.0106 µM.
The like results for `C[C@H]1CC[C@H](NC(=O)c2ccnc(-c3cncs3)n2)CC1` [Compound 112, N-((1r,4r)-4-methylcyclohexyl)-2-(thiazol-5-yl)pyrimidine-4-carboxamide] were, in that order, 0.639 µM and 0.158 µM.
On to `CO[C@H]1CC[C@H](NC(=O)c2cc(N3CCCC3)cc(-n3ccnc3)n2)CC1` [Compound 180, 6-(1H-imidazol-1-yl)-N-(4-methoxycyclohexyl)-4-(pyrrolidin-1-yl)picolinamide], for which the IC50 in experiment [1] was 0.078 µM; in experiment [2], 0.008 µM.
As to `O=C(NC1CN(c2ccccc2)C1)c1nccc(-n2ccnc2)n1` [Compound 262, 4-(1H-imidazol-1-yl)-N-(1-phenylazetidin-3-yl)pyrimidine-2-carboxamide], the IC50 turned out to be 1.84 µM in experiment [1] and 0.232 µM in experiment [2].
The corresponding values for `CC(C)O[C@H]1C[C@H](NC(=O)c2nccc(-c3cncn3C)n2)C1` [Compound 320, N-((1r,3r)-3-isopropoxycyclobutyl)-4-(1-methyl-1H-imidazol-5-yl)pyrimidine-2-carboxamide] are 0.949 µM and 0.218 µM.
The corresponding values for `Cn1cncc1-c1ccnc(C(=O)N[C@H]2CC[C@H](O)C2)n1` [Compound 305, N-((1S,3S)-3-hydroxycyclopentyl)-4-(1-methyl-1H-imidazol-5-yl)pyrimidine-2-carboxamide] are 0.485 µM and 0.0624 µM.
The corresponding values for `O=C(Nc1ccc(C(F)F)nc1)c1cc(N2CCCC2)cc(-c2cncs2)n1` [Compound 179, N-(6-(Difluoromethyl)pyridin-3-yl)-4-(pyrrolidin-1-yl)-6-(thiazol-5-yl)picolinamide] are 1.38 µM and 0.142 µM.
As to `Cc1cnc(-c2cncn2C)nc1C(=O)N[C@H]1CC[C@H](O)CC1` [Compound 321, 5-Methyl-2-(3-methylimidazol-4-yl)-N-[(1r,4r)-4-hydroxycyclohexyl]pyrimidine-4-carboxamide], the figures for the IC50 in experiment [1] and in experiment [2] were 0.133 µM and 0.0322 µM, respectively.
The corresponding values for `O=C(Nc1ccc(OC(F)F)nc1)c1nccc(-n2ccnc2)n1` [Compound 354, N-(6-(difluoromethoxy)pyridin-3-yl)-4-(1H-imidazol-1-yl)pyrimidine-2-carboxamide] are 0.0042 µM and 0.0169 µM.
As to `O=C(NC1(c2ccc(C(F)(F)F)cc2)COC1)c1cccc(-n2ccnc2)n1` [Compound 58, 6-(1H-imidazol-1-yl)-N-(3-(4-(trifluoromethyl)phenyl)oxetan-3-yl)picolinamide], the figures for the IC50 in experiment [1] and in experiment [2] were 2.18 µM and 1.04 µM, respectively.
The like results for `Cc1cnc(-c2cncn2C)nc1C(=O)Nc1ccc(C(F)(F)F)nc1` [Compound 326, 5-methyl-2-(1-methyl-1H-imidazol-5-yl)-N-(6-(trifluoromethyl)pyridin-3-yl)pyrimidine-4-carboxamide] were, in that order, 0.0034 µM and 0.0014 µM.
The corresponding values for `NC(=O)c1cn(-c2cccc(C(=O)Nc3ccc(C(F)(F)F)nc3)n2)cn1` [Compound 76, 6-(4-carbamoyl-1H-imidazol-1-yl)-N-(6-(trifluoromethyl)pyridin-3-yl)picolinamide] are 0.905 µM and 3.2 µM.
The corresponding values for `CO[C@H]1CC[C@H](NC(=O)c2cc(O)nc(-n3ccnc3)n2)CC1` [Compound 126, 6-hydroxy-2-(1H-imidazol-1-yl)-N-((1r,4r)-4-methoxycyclohexyl)pyrimidine-4-carboxamide] are 0.841 µM and 0.084 µM.
Regarding `CO[C@H]1CC[C@H](NC(=O)c2cc(C(C)C)nc(-n3ccnc3)n2)CC1` [Compound 167, 2-(1H-imidazol-1-yl)-6-isopropyl-N-((1r,4r)-4-methoxycyclohexyl)pyrimidine-4-carboxamide], the IC50 in experiment [1] is 0.214 µM; in experiment [2] it was 0.046 µM.
The like results for `O=C(Nc1ccc(C(F)(F)F)nc1)c1cc(C2CC2)nc(-c2cncs2)n1` [Compound 109, 6-cyclopropyl-2-(thiazol-5-yl)-N-(6-(trifluoromethyl)pyridin-3-yl)pyrimidine-4-carboxamide] were, in that order, 0.312 µM and 0.066 µM.
The corresponding values for `CO[C@H]1CC[C@H](NC(=O)c2ccnc(-c3cncs3)n2)CC1` [Compound 113, N-((1r,4r)-4-methoxycyclohexyl)-2-(thiazol-5-yl)pyrimidine-4-carboxamide] are 0.569 µM and 0.166 µM.
The like results for `CO[C@H]1CC[C@H](NC(=O)c2cc(C3CCC3)nc(-c3cncn3C)n2)CC1` [Compound 181, 6-Cyclobutyl-N-((1r,4r)-4-methoxycyclohexyl)-2-(1-methyl-1H-imidazol-5-yl)pyrimidine-4-carboxamide] were, in that order, 0.014 µM and 0.002 µM.
For the molecule `COC[C@H]1CC[C@H](NC(=O)c2ccnc(-c3cncs3)n2)CC1` [Compound 139, N-((1r,4r)-4-(methoxymethyl)cyclohexyl)-2-(thiazol-5-yl)pyrimidine-4-carboxamide], the IC50 in experiment [1] stood at 1.01 µM; in experiment [2], 0.232 µM.
The corresponding values for `Cn1cncc1-c1nc(C(=O)Nc2ccc(C(F)F)nc2)cc(C2CCC2)n1` [Compound 183, 6-cyclobutyl-N-(6-(difluoromethyl)pyridin-3-yl)-2-(1-methyl-1H-imidazol-5-yl)pyrimidine-4-carboxamide] are 0.007 µM and 0.002 µM.
The corresponding values for `COc1ccc(NC(=O)c2nccc(-c3cncn3C)n2)cn1` [Compound 356, N-(6-methoxypyridin-3-yl)-4-(1-methyl-1H-imidazol-5-yl)pyrimidine-2-carboxamide] are 0.0043 µM and 0.01 µM.
The corresponding values for `CO[C@H]1CC[C@H](NC(=O)c2nc(-c3cncn3C)cc(C(F)F)n2)CC1` [Compound 350, 4-(difluoromethyl)-N-((1r,4r)-4-methoxycyclohexyl)-6-(1-methyl-1H-imidazol-5-yl)pyrimidine-2-carboxamide] are 0.107 µM and 0.0113 µM.
In the case of `Cn1cncc1-c1ccnc(C(=O)N[C@H]2CC[C@@](O)(c3ccccc3)CC2)n1` [Compound 253, N-((1r,4r)-4-hydroxy-4-phenylcyclohexyl)-4-(1-methyl-1H-imidazol-5-yl)pyrimidine-2-carboxamide], the IC50 in experiment [1] amounted to 1.7 µM; in experiment [2], 0.124 µM.
